pKi: −log10 of the molar value.
Legend:
D3 [1] = settings: cited from earlier work
D3 [2] = target: T1, D3 (Homo sapiens, UniProt P55073); settings: read-out: Ki, D3-catalyzed T3 5 deiodination; competitive inhibitor; cited from earlier work
T1 sequence (P55073 1-304): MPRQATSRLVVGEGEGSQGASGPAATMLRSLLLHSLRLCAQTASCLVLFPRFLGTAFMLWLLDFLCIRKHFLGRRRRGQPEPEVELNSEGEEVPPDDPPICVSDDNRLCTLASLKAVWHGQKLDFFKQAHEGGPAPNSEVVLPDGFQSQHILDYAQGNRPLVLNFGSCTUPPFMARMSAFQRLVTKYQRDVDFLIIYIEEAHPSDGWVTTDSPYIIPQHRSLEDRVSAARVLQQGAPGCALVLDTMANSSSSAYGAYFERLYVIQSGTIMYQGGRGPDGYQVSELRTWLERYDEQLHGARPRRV

D1 [3] = target: T2, D1 (Homo sapiens, UniProt P49895); settings: competitive inhibitor; read-out: Ki, D1-catalyzed rT3 deiodination; cited from earlier work
T2 sequence (P49895 1-249): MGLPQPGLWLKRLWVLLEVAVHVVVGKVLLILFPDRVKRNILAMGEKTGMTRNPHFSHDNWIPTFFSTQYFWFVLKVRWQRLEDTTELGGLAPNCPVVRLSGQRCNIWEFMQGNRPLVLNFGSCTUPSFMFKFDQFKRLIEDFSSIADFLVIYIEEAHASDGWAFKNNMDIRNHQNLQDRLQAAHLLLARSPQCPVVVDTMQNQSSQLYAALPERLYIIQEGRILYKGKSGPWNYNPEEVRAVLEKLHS

D1 [4] = target: T2, D1; test: Inhibition of D1-catalyzed rT3 deiodination; assay type: biochemical; settings: D1 much more sensitive to inhibition than D3
Description: In addition to those specifically disclosed herein, additional D3 inhibitors can be identified by the generation of analogs or derivatives of known inhibitors, which can be used as lead compounds. […] Based upon such differences, lead compounds can be generated that have excellent specificity for specific deiodinases.

[5] = Wild-type mice made hypothyroid with perchlorate, epididymal fat pad weight; assay type: in vivo, mouse; settings: 0.04% perchlorate for two months, relative weight of epididymal fat pad, P<0.01
Description: Analysis of relative weights (compared to total body weight) of male epididymal (EPI) and female parametrial white adipose tissue (WAT) indicated a significant reduction in adult D3KO mice (20% reduction in males and 35% in females, P<0.001, see FIG. 1). This reduction was more marked in aged D3KO mice (60%, P<0.001). […] These alterations were not due to the moderate hypothyroidism present in the D3KO mouse, as wild-type mice made hypothyroid with 0.04% perchlorate to a degree similar to that in D3KO mice manifested a 15% increase in EPI WAT weight (P<0.01, FIG. 3). Thus, the decreased adiposity of the D3KO mouse is both unexpected and even more striking in degree.

## CCC(Cc1c(I)cc(I)c(N)c1I)C(=O)O (stereo not drawn) [iopanoic acid]
D3 [1]
  D3 inhibitory activity: effectively inhibit D3 activity

## OC[C@@H](O)[C@@H](O)[C@H](O)[C@@H](O)C=S.[Au] [gold thioglucose]
D3 [2]
  pKi: 5.28
D1 [3]
  pKi: 8.22
D1 [4]
  difference in Ki between D1 and D3 inhibition: approximately 1000 fold

## [O-][Cl+3]([O-])([O-])O [perchlorate]
[5]
  increase in EPI WAT weight: 15%

## O=C(O)CI [iodoacetate]
D3 [1]
  D3 inhibitory activity: exhibits D3 inhibitory activity
